Columns and labels:
in vivo [1] = conditions: Sprague-Dawley, rat, 13.6 ug
Method: Several additional single dose pharmacokinetic studies were performed in Sprague-Dawley rats.
Dose Administration Typically, one day prior to dosing, an area just above the hind legs on the dorsal side of the rat was shaved using electric clippers. Nair® hair removal lotion was then applied to the area for 5 to 8 minutes to remove remaining hair stubble. The Nair lotion was removed completely using a cloth dampened with water. The next day the microneedle array was applied using the supplied spring loaded applicator. The microneedle array was left in contact with the skin for either five minutes before removal or removed almost immediately (typically 2-3 seconds after skin contact). During microneedle application and contact, the rats were manually restrained.
Serum Sample Collection Blood was collected from each rat at 5, 15, 30, 45 and 90 minutes after application of microneedle arrays, for LCP-microneedle arrays and at 1, 5, 15 and 30 minutes after application for PC-microneedle arrays. Approximately 600 μL of blood was collected via the catheter from the jugular vein using a syringe and needle from rats for their first four blood draws. For the last blood collection, animals were euthanized via CO2 chamber and approximately 600 μL of blood was collected via cardiac puncture. The blood was immediately transferred to a serum separator tube that contained 12 μL of a 2.5 mg/ml aprotinin (Sigma) solution.

in vivo [2] = conditions: male, Sprague Dawley, rat; for bioavailability: % F; for AUC(0-t): AUC0-t; for half-life: T1/2
Method: Certain drug coated microarrays were tested in vivo in a preclinical model using Sprague Dawley rats. […] Male Sprague Dawley rats with jugular vein catheters were purchased from Charles River Laboratories. Once received, they were acclimated for at least 24 hours prior to dosing.
Typically, one hour prior to dosing microneedle arrays were removed from refrigeration (approximately 4° C.) and allowed to equilibrate to room temperature.
The standard procedure for skin preparation and microneedle array application is as follows.
One day prior to dosing, an area just above the hind legs on the dorsal surface of the rat was shaved using electric clippers. Nair® hair removal lotion (Church & Dwight Co.) was then applied to the area for 5 to 8 minutes to remove remaining fur stubble. The Nair® lotion was then thoroughly removed using a damp cloth. The next day a microneedle array was applied using a spring-loaded applicator. The microneedle array was left in contact with skin for five minutes, before being removed. During array application and contact time the rats were manually restrained.
Blood was collected at three time points from each animal out of a possible total of five time destinations (5 minutes, 15 minutes, 30 minutes, 45 minutes, 90 minutes) from each rat on a staggered schedule so that all time points would be represented with extra sampling at 15 minutes without overdrawing from any animal. Approximately 1 mL of blood was collected via the catheter from the jugular vein using a syringe and needle from rats for their first two blood draws. For the terminal blood collection, animals were euthanized via CO2 chamber and approximately 1 mL of blood was collected via cardiac puncture. The blood was immediately transferred to a serum separator tube that contained 25 μL of a 2.5 mg/ml aprotinin (Sigma) solution.
Blood was collected from each rat 5, 10, 15, 30 and 45 minutes post dose. Approximately 600 μL of blood was collected via the catheter from the jugular vein using a syringe and needle from rats for their first four blood draws. For the terminal blood collection, animals were euthanized via CO2 chamber and approximately 600 μL of blood was collected via cardiac puncture. The blood was immediately transferred to a serum separator tube that contained 12 μL of a 2.5 mg/ml aprotinin (Sigma) solution.
Blood was collected three or four times from each rat at the time points depicted in the tables below. Approximately 1 mL of blood was collected via the catheter from the jugular vein using a syringe and needle from rats for any non-terminal time points. For the terminal blood collection, animals were euthanized via CO2 chamber and approximately 1 mL of blood was collected via cardiac puncture. The blood was immediately transferred to a serum separator tube that contained 20 μL of a 2.5 mg/ml aprotinin (Sigma) solution.
Blood was collected from each rat 5, 15, 30, 45, 90 and 120 minutes post dose. Approximately 500 μL of blood was collected via the catheter from the jugular vein using a syringe and needle from rats for their first five blood draws. For the terminal blood collection, animals were euthanized via CO2 chamber and approximately 500 μL of blood was collected via cardiac puncture.

[3] = 9.8 ug, Concentrations of Peptide in Serum
[4] = 20 ug, Concentration of Peptide in Serum, Mean
[5] = 22 ug, Concentration of Peptide in Serum, Mean
[6] = 26.2 ug, Concentration of Peptide in Serum, Mean
[7] = 26.2 ug, Concentrations of Peptide in Serum
[8] = 27 ug, Concentration of Peptide in Serum, Mean
[9] = 27 ug, Concentrations of Peptide in Serum
[10] = 31 ug, Concentration of Peptide in Serum, Mean
[11] = 32 ug, Concentration of Peptide in Serum, Mean
[12] = 32 ug, Concentrations of Peptide in Serum
[13] = 45.6 ug, Concentration of Peptide in Serum, Mean
[14] = 54 ug, Concentrations of Peptide in Serum
[15] = 57.7 ug, Concentration of Peptide in Serum, Mean
[16] = 67.7 ug, Concentration of Peptide in Serum, Mean
[17] = 141.9 ug, Concentration of Peptide in Serum, Mean
[18] = 386.5 ug, Concentration of Peptide in Serum, Mean

CC[C@H](C)[C@H](NC(=O)[C@H](CO)NC(=O)[C@H](CCCCN)NC(=O)CNC(=O)[C@H](CCCCN)NC(=O)[C@H](CC(=O)O)NC(=O)[C@H](Cc1cnc[nH]1)NC(=O)[C@H](CC(C)C)NC(=O)[C@H](CC(C)C)NC(=O)[C@H](CCC(N)=O)NC(=O)[C@H](Cc1cnc[nH]1)NC(=O)[C@H](CCC(=O)O)NC(=O)[C@H](CO)NC(=O)[C@@H](NC(=O)[C@H](C)N)C(C)C)C(=O)N[C@@H](CCC(N)=O)C(=O)N[C@@H](CC(=O)O)C(=O)N[C@@H](CC(C)C)C(=O)N[C@@H](CCCNC(=N)N)C(=O)N[C@@H](CCCNC(=N)N)C(=O)N[C@@H](CCCNC(=N)N)C(=O)N[C@@H](CCC(=O)O)C(=O)N[C@@H](CC(C)C)C(=O)N[C@@H](CC(C)C)C(=O)N[C@@H](CCC(=O)O)C(=O)N[C@@H](CCCCN)C(=O)N[C@@H](CC(C)C)C(=O)N[C@@H](CC(C)C)C(=O)NC(C)(C)C(=O)N[C@@H](CCCCN)C(=O)N[C@@H](CC(C)C)C(=O)N[C@@H](Cc1cnc[nH]1)C(=O)N[C@H](C(=O)N[C@@H](C)C(N)=O)[C@@H](C)O [Peptide]
AUC (in vivo [1]; AUC5-90, Mean): 3.68 ng·h/mL | Cmax (in vivo [1]; Cmax, Mean): 9.7 ng/mL | level at 5 min (in vivo [1]; Concentration in Serum at 5 min, Mean): 8.8 ng/mL | level at 0.25 h (in vivo [1]; Concentration in Serum at 15 min, Mean): 8.6 ng/mL | level at 0.5 h (in vivo [1]; Concentration in Serum at 30 min, Mean): 6 ng/mL | Tmax (in vivo [1]; Tmax, Mean): 9 min | bioavailability (in vivo [2]; 9.8 ug): 49% | AUC(0-t) (in vivo [2]; 9.8 ug): 5.72 ng·h/mL | Cmax (in vivo [2]; 9.8 ug, Cmax): 12 ng/mL | level at 5 min (in vivo [2]; [3]): 12 ng/mL | level at 0.25 h (in vivo [2]; [3]): 9.65 ng/mL | level at 0.5 h (in vivo [2]; [3]): 4.96 ng/mL | level at 0.75 h (in vivo [2]; [3]): 2.07 ng/mL | level at 1 h (in vivo [2]; [3]): 1.47 ng/mL | level at 1.5 h (in vivo [2]; [3]): 0.62 ng/mL | level at 2 h (in vivo [2]; [3]): 0.38 ng/mL | half-life (in vivo [2]; 9.8 ug): 22 min | Tmax (in vivo [2]; 9.8 ug): 5 min | bioavailability (in vivo [2]; 20 ug): 47% | AUC(0-t) (in vivo [2]; 20 ug): 9.6 ng·h/mL | Cmax (in vivo [2]; 20 ug, Cmax): 11.9 ng/mL | level at 5 min (in vivo [2]; [4]): 9.34 ng/mL | level at 0.25 h (in vivo [2]; [4]): 11.9 ng/mL | level at 0.5 h (in vivo [2]; [4]): 6.4 ng/mL | level at 0.75 h (in vivo [2]; [4]): 7.12 ng/mL | level at 1.5 h (in vivo [2]; [4]): 3.14 ng/mL | half-life (in vivo [2]; 20 ug): 43 min | Tmax (in vivo [2]; 20 ug): 15 min | bioavailability (in vivo [2]; 20 ug/kg): 69% | AUC(0-t) (in vivo [2]; 20 ug/kg): 2.77 ng·h/mL | Cmax (in vivo [2]; 20 ug/kg, Cmax): 7.29 ng/mL | Cmax (in vivo [2]; 20 ug/kg, Cmax (20 μg/kg Dose)): 7.29 ng/mL | half-life (in vivo [2]; 20 ug/kg): 18 min | Tmax (in vivo [2]; 20 ug/kg): 10 min | bioavailability (in vivo [2]; 22 ug): 36% | AUC(0-t) (in vivo [2]; 22 ug): 7.75 ng·h/mL | Cmax (in vivo [2]; 22 ug, Cmax): 17.1 ng/mL | level at 5 min (in vivo [2]; [5]): 17.1 ng/mL | level at 0.25 h (in vivo [2]; [5]): 13.2 ng/mL | level at 0.5 h (in vivo [2]; [5]): 6.46 ng/mL | level at 0.75 h (in vivo [2]; [5]): 3.35 ng/mL | level at 1.5 h (in vivo [2]; [5]): 0.8 ng/mL | half-life (in vivo [2]; 22 ug): 19 min | Tmax (in vivo [2]; 22 ug): 5 min | bioavailability (in vivo [2]; 26.2 ug): 101% | AUC(0-t) (in vivo [2]; 26.2 ug): 24.1 ng·h/mL | Cmax (in vivo [2]; 26.2 ug, Cmax): 44 ng/mL | level at 5 min (in vivo [2]; [6]): 34.6 ng/mL | level at 0.25 h (in vivo [2]; [6]): 44 ng/mL | level at 0.5 h (in vivo [2]; [6]): 17.3 ng/mL | level at 0.75 h (in vivo [2]; [6]): 13.8 ng/mL | level at 1.5 h (in vivo [2]; [6]): 2.22 ng/mL | level at 5 min (in vivo [2]; [7]): 41.1 ng/mL | level at 10 min (in vivo [2]; [7]): 26.7 ng/mL | level at 0.25 h (in vivo [2]; [7]): 42.8 ng/mL | level at 0.5 h (in vivo [2]; [7]): 17.4 ng/mL | level at 0.75 h (in vivo [2]; [7]): 12.5 ng/mL | half-life (in vivo [2]; 26.2 ug): 18 min | Tmax (in vivo [2]; 26.2 ug): 15 min | AUC(0-t) (in vivo [2]; 27 ug): 17 ng·h/mL | Cmax (in vivo [2]; 27 ug, Cmax): 31 ng/mL | level at 5 min (in vivo [2]; [8]): 32.6 ng/mL | level at 0.25 h (in vivo [2]; [8]): 31 ng/mL | level at 0.5 h (in vivo [2]; [8]): 18.1 ng/mL | level at 5 min (in vivo [2]; 27 ug, Concentration of Peptide in Serum, individual rat): 28.2 ng/mL | level at 5 min (in vivo [2]; [9]): 27.4 ng/mL | level at 0.25 h (in vivo [2]; [9]): 29.7 ng/mL | level at 0.5 h (in vivo [2]; [9]): 12.2 ng/mL | level at 0.75 h (in vivo [2]; [9]): 9.1 ng/mL | half-life (in vivo [2]; 27 ug): 20 min | Tmax (in vivo [2]; 27 ug): 15 min | bioavailability (in vivo [2]; 31 ug): 42% | AUC(0-t) (in vivo [2]; 31 ug): 12.5 ng·h/mL | Cmax (in vivo [2]; 31 ug, Cmax): 23.6 ng/mL | level at 5 min (in vivo [2]; [10]): 20.3 ng/mL | level at 0.25 h (in vivo [2]; [10]): 23.6 ng/mL | level at 0.5 h (in vivo [2]; [10]): 12.5 ng/mL | level at 0.75 h (in vivo [2]; [10]): 4.73 ng/mL | level at 1.5 h (in vivo [2]; [10]): 1.04 ng/mL | half-life (in vivo [2]; 31 ug): 17 min | Tmax (in vivo [2]; 31 ug): 15 min | bioavailability (in vivo [2]; 32 ug): 102% | AUC(0-t) (in vivo [2]; 32 ug): 27.4 ng·h/mL | Cmax (in vivo [2]; 32 ug, Cmax): 49.2 ng/mL | level at 5 min (in vivo [2]; [11]): 45.2 ng/mL | level at 0.25 h (in vivo [2]; [11]): 49.2 ng/mL | level at 0.5 h (in vivo [2]; [11]): 18.9 ng/mL | level at 0.75 h (in vivo [2]; [11]): 13.6 ng/mL | level at 1.5 h (in vivo [2]; [11]): 5.03 ng/mL | level at 5 min (in vivo [2]; [12]): 25.1 ng/mL | level at 10 min (in vivo [2]; [12]): 34.4 ng/mL | level at 0.25 h (in vivo [2]; [12]): 34 ng/mL | level at 0.5 h (in vivo [2]; [12]): 17.8 ng/mL | level at 0.75 h (in vivo [2]; [12]): 12.7 ng/mL | half-life (in vivo [2]; 32 ug): 25 min | Tmax (in vivo [2]; 32 ug): 15 min | bioavailability (in vivo [2]; 45.6 ug): 108% | AUC(0-t) (in vivo [2]; 45.6 ug): 48.7 ng·h/mL | Cmax (in vivo [2]; 45.6 ug, Cmax): 88.2 ng/mL | level at 5 min (in vivo [2]; [13]): 88.2 ng/mL | level at 0.25 h (in vivo [2]; [13]): 76.1 ng/mL | level at 0.5 h (in vivo [2]; [13]): 36.1 ng/mL | level at 0.75 h (in vivo [2]; [13]): 29.3 ng/mL | level at 1.5 h (in vivo [2]; [13]): 4.79 ng/mL | half-life (in vivo [2]; 45.6 ug): 20 min | Tmax (in vivo [2]; 45.6 ug): 5 min | bioavailability (in vivo [2]; 54 ug): 37% | AUC(0-t) (in vivo [2]; 54 ug): 23 ng·h/mL | Cmax (in vivo [2]; 54 ug, Cmax): 49.8 ng/mL | level at 5 min (in vivo [2]; [14]): 16.5 ng/mL | level at 0.25 h (in vivo [2]; [14]): 49.8 ng/mL | level at 0.5 h (in vivo [2]; [14]): 17.1 ng/mL | level at 0.75 h (in vivo [2]; [14]): 9.37 ng/mL | level at 1 h (in vivo [2]; [14]): 7.75 ng/mL | half-life (in vivo [2]; 54 ug): 24 min | Tmax (in vivo [2]; 54 ug): 15 min | bioavailability (in vivo [2]; 57.7 ug): 82% | AUC(0-t) (in vivo [2]; 57.7 ug): 41.8 ng·h/mL | Cmax (in vivo [2]; 57.7 ug, Cmax): 60.8 ng/mL | level at 5 min (in vivo [2]; [15]): 43.1 ng/mL | level at 0.25 h (in vivo [2]; [15]): 60.8 ng/mL | level at 0.5 h (in vivo [2]; [15]): 40.1 ng/mL | level at 0.75 h (in vivo [2]; [15]): 28.1 ng/mL | level at 1.5 h (in vivo [2]; [15]): 3.72 ng/mL | half-life (in vivo [2]; 57.7 ug): 18 min | Tmax (in vivo [2]; 57.7 ug): 15 min | bioavailability (in vivo [2]; 67.7 ug): 74% | AUC(0-t) (in vivo [2]; 67.7 ug): 48.2 ng·h/mL | Cmax (in vivo [2]; 67.7 ug, Cmax): 82.7 ng/mL | level at 5 min (in vivo [2]; [16]): 64.9 ng/mL | level at 0.25 h (in vivo [2]; [16]): 82.7 ng/mL | level at 0.5 h (in vivo [2]; [16]): 51.3 ng/mL | level at 0.75 h (in vivo [2]; [16]): 19.7 ng/mL | level at 1.5 h (in vivo [2]; [16]): 7.6 ng/mL | half-life (in vivo [2]; 67.7 ug): 22 min | Tmax (in vivo [2]; 67.7 ug): 15 min | AUC(0-t) (in vivo [2]; 141.9 ug): 173 ng·h/mL | Cmax (in vivo [2]; 141.9 ug, Cmax): 230 ng/mL | level at 5 min (in vivo [2]; [17]): 186 ng/mL | level at 0.25 h (in vivo [2]; [17]): 230 ng/mL | level at 0.5 h (in vivo [2]; [17]): 219 ng/mL | level at 0.75 h (in vivo [2]; [17]): 91.8 ng/mL | level at 1.5 h (in vivo [2]; [17]): 23.7 ng/mL | half-life (in vivo [2]; 141.9 ug): 21 min | Tmax (in vivo [2]; 141.9 ug): 15 min | bioavailability (in vivo [2]; 386.5 ug): 22% | AUC(0-t) (in vivo [2]; 386.5 ug): 75.5 ng·h/mL | Cmax (in vivo [2]; 386.5 ug, Cmax): 118 ng/mL | level at 5 min (in vivo [2]; [18]): 97.5 ng/mL | level at 0.25 h (in vivo [2]; [18]): 133 ng/mL | level at 0.5 h (in vivo [2]; [18]): 75.4 ng/mL | level at 0.75 h (in vivo [2]; [18]): 42.2 ng/mL | level at 1.5 h (in vivo [2]; [18]): 7.53 ng/mL | half-life (in vivo [2]; 386.5 ug): 18 min | Tmax (in vivo [2]; 386.5 ug): 15 min
